Legend:
[1] = test system: sub-genomic replicon, genotype 1b (Con1b); test: Sub-genomic replicon assay (luciferase); assay type: cell-based, hepatitis C virus; conditions: FIG. 8
Method: This assay uses a sub-genomic replicon analogous to that described by Lohmann (Lohmann et al., 1999). As above, we co-transfect an RNA encoding renilla […] luciferase to allow normalization of transfection levels. In these assays we usually transfect the sub-genomic replicon (and renilla) RNA 24 hours before addition of the oligonucleotides.
In this assay we investigated inhibition of luciferase gene activity encoding by the sub-genomic replicon and the influence of prior transfection of oligonucleotides directed against SL9266 or SL9571. The sub-genomic replicon is a genotype 1b sequences (Con1b) and directly complementary oligonucleotides directed against SL9266 (labelled anti SL9266_C) inhibit replication by ˜70% (see FIG. 8).

[2] = test system: translation of hepatitis C virus; test: Translation assay with bicistronic luciferase reporter, co-transfected with oligonucleotides; assay type: cell-based; conditions: Huh-7.5 cells, added at 1600 nM, normalized to untreated samples
From the text: The translation assay uses the bicistronic reporter gene system described in Example 1. In brief, a firefly luciferase reporter gene is under the translational control of the HCV internal ribosome entry site (IRES) as part of the complete 5′ untranslated region of HCV. The luciferase gene is followed by an IRES from an unrelated virus (encephalomyocarditis virus; EMCV) which drives expression of the RNA dependent RNA polymerase (RdRp) of HCV (the NS5B protein) which, in turn, is followed by the HCV 3′ untranslated region (3′ UTR).
All experiments are routinely conducted in human hepatoma cells—Huh-7.5. This is the cell line in which HCV replicates. However, we have also investigated the bicistronic reporter system in HepG2, HeLa and murine cell lines, as well as in cell free translation systems supplemented with Huh-7.5 cell extracts.
The readout of the translation assay is luciferase activity. To control for differences in transfection we co-transfected a separate plasmid encoding renilla luciferase and normalize all firefly results to this.
The translation inhibition assay is typically conducted by co-transfecting RNA generated in vitro from the bicistronic reporter plasmid with oligonucleotides to be tested. Assays for luciferase are routinely conducted four hours post transfection.

[3] = test system: genotype 2a JFH-1 hepatitis C virus; test: Virus production / virus replication assay (HCVcc, NS5A immunofocal staining); assay type: cell-based; conditions: JFH-1 in Huh-7.5 cells, compared to untreated cells, FIG. 9
Method: This assay uses the HCVcc system that measures the production of infectious genotype 2a JFH-1 hepatitis C virus as described previously (Wakita et al., 2005). In this assay oligonucleotides directed against RNA sequences or structures are transfected into Huh-7.5 cells and a known amount of virus added 4 hours later. After 24 hours incubation the cell sheet is fixed and virus replication quantified by immunofocal staining for virus antigen (in this instance the NS5A protein). Infected cells are counted using a fluorescence microscope.

With “5′-ACGCTGTGAAAAATGTC-3′ [JFH-1 anti-SL9266 LNA oligonucleotide]” the “inhibition of replication (replicon luciferase activity), in words” value [1] was “only partially inhibitory”.
For “5′-GCACAGCGCAAGTATGTTA-3′ [Randomised LNA oligonucleotide]”, the “inhibition of translation (maximum)” value [2] was roughly 20% and the “influence on virus replication, in words” value [3] was “little or no influence”.
With “5′-GGGCACGAGACAGGCTGTGAT-3′ [Con1b anti-SL9266 LNA oligonucleotide]” the “inhibition of replication (replicon luciferase activity)” value [1] was roughly 70%.

Reference: patent publication US20140221460A1, “METHOD FOR IDENTIFYING MODULATORS OF HCV TRANSLATION OR REPLICATION INVOLVING THE NS5B POLYPEPTIDE AND A PSEUDOKNOT” (priority 2011, published 2014)
